Measured values published in US5004758A, “Water soluble camptothecin analogs useful for inhibiting the growth of animal tumor cells” (priority 1988, dated 1991).
Structures can show the parent of a compound that is named as a salt. Where two headings read alike, the source gives them in different places.

Experiments:
[1] = tested on: L1210 leukemia cells; assay: cells; format: cell-based, mouse; conditions: Mus musculus, L1210, read-out: In Vitro Activity IC50
Description: Cells were exposed continuously upon cloning into medium containing 0.2 percent Noble agar. After incubation at 37° C. in a CO2 incubator for 3 days, colonies were stained with viable cell specific formazan stain and, 24 hours later, were enumerated by a colony counter (Biotran II, New Brunswick Scientific Co., Edison, N.J.) adjusted to identify colonies of more than 50 cells. The concentration which reduced cloning efficiency by 50 percent IC50) was determined by interpolation.

[2] = ip-implanted L1210 leukemia in mice; conditions: mouse, in vivo, ip;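 note: each mouse received 10^6 L1210 cells intraperitoneally, with drug treatment also given by the i.p. route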
Description: (§1) For in vivo studies L1210 cells were implanted i.p. (10^6 per mouse)
(§2) and drugs were administered i.p. on Days 1 and 5. Increase in lifespan
(§3) (ILS) was based on median survival time of groups of 6 mice treated at th
maximally tolerated dose of the drugs.

[3] = tested on: ip L1210 leukemia; assay: ip-implanted L1210 leukemia in mice;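 note: each mouse received 10^6 L1210 cells intraperitoneally, with drug treatment also given by the i.p. route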; conditions: ip L1210 (10^6 cells); drug i.p. Days 1 and 5 at maximally tolerated dose
Description: as §1, §2, §3
maximally tolerated dose of the drugs.

[4] = tested on: ip P388 leukemia; conditions: P388, ip, Days 1 and 5
Description: (§4) Increase in lifespan (ILS) is based on median survival time of groups of 6 mice. Net tumor cell kill (NCK) is calculated from median survival time by standard methods, since survival time is a linear function of the log tumor cell burden.
Animals were implanted ip with 10^6 cells. Increase in lifespan (ILS) is based on median survival time of groups of 6 mice relative to untreated controls. Long-term survivors were tumor-free on Day 45.
Tumors used in these studies--P388 leukemia and its doxorbicin--and mitoxanrone-resistant sublines, L1210 leukemia, B16 melanoma, B16 melanoma/F10 subline, M5076 sarcoma and colon carcinoma 26--are maintained by serial transplantation in syngeneic strains of mice. For the leukemias, these tumors are maintained in DBA/2 mice. The M5076 sarcoma, the B16 melanoma and its F10 subline are maintained in C57B1/6 mice and the colon sarcinoma 26 is maintained in BALB/c mice. The leukemias and the M5076 sarcoma are serially transplanted i.p. as ascites cell suspensions while the B16 melanoma lines and the colon carcinoma 26 are serially transplanted as s.c. solid tumors.
For therapeutic trials, tumors are aseptically removed from donor mice and prepared as suspensions for implantation ip into test animals. The test animals for the colon carcinoma 26 are female BALB/c mice (20-25 gm). The test animals for the other tumor models are syngeneic female F1 hybrid B6D2F1 mice (C57B1/6 x DBA/2). The inoculum level varies with the type of tumor: P388 leukemia is inoculated at 10^6 cells per mouse, L1210 leukemia at 10^5 or 10^6 cells per mouse, M5076 sarcoma at 5×10^6 cells per mouse. For implantation of the B16 melanoma lines and the colon carcinoma 26, s.c. tumors from donor mice are minced and homogenized in loose fitting teflon glass homogenizer to give a tumor brei. The inoculum levels are 0.5 ml of a 10 percent (w:v) brei of the B16 melanoma lines and 0.5 ml of a 5 percent (w:v) brei of colon carcinoma 26. After tumor inoculation, mice randomized to treatment groups comprised of 6-8 mice each. In each experiment, there are three groups of untreated control mice. Drugs are dissolved or suspended in appropriate aqueous vehicles and given by a variety of routes and schedules of administration over a range of dose levels. Animals are housed in shoebox cages and are monitored daily for mortality for 30 (L1210), 45 (P388) or 60 (B16, M5076, colon 26) days.

[5] = tested on: P388/Doxorubicin; assay: ip P388/Doxorubicin multidrug resistant subline in mice; conditions: for ILS / NCK (net tumor cell kill): P388/Doxorubicin, ip, Days 1 and 5; for sensitivity / resistance of subline: P388/doxorubicin in mice
Description: as §4
(§5) For the leukemias, these tumors are maintained in DBA/2 mice. […] The leukemias and the M5076 sarcoma are serially transplanted i.p. as ascites cell suspensions while the B16 melanoma lines and the colon carcinoma 26 are serially transplanted as s.c. solid tumors.
(§6) For therapeutic trials, tumors are aseptically removed from donor mice and prepared as suspensions for implantation ip into test animals. […] The test animals for the other tumor models are syngeneic female F1 hybrid B6D2F1 mice (C57B1/6 x DBA/2). The inoculum level varies with the type of tumor: P388 leukemia is inoculated at 10^6 cells per mouse, L1210 leukemia at 10^5 or 10^6 cells per mouse, M5076 sarcoma at 5×10^6 cells per mouse. […] After tumor inoculation, mice randomized to treatment groups comprised of 6-8 mice each. In each experiment, there are three groups of untreated control mice. Drugs are dissolved or suspended in appropriate aqueous vehicles and given by a variety of routes and schedules of administration over a range of dose levels. Animals are housed in shoebox cages and are monitored daily for mortality for 30 (L1210), 45 (P388) or 60 (B16, M5076, colon 26) days.

[6] = tested on: P388/Mitoxantrone; assay: ip P388/Mitoxantrone multidrug resistant subline in mice; conditions: for ILS / NCK (net tumor cell kill): P388/Mitoxantrone, ip, Days 1 and 5
Description: as §4, §5, §6

CC[C@@]1(O)C(=O)OCc2c1cc1n(c2=O)Cc2cc3c(CNC4CC4)c(O)ccc3nc2-1 [8S]
IC50 [1]: 130 nM | MTD [2]: 25 mg/kg | In Vivo Antitumor Activity ILS (increase in lifespan) [3]: 131%

CC[C@@]1(O)C(=O)OCc2c1cc1n(c2=O)Cc2cc3c(CN(C)c4ccccc4)c(O)ccc3nc2-1 [9S]
IC50 [1]: 69 nM | MTD [2]: 42 mg/kg | In Vivo Antitumor Activity ILS (increase in lifespan) [3]: 112%

CCOCc1c(O)ccc2nc3c(cc12)Cn1c-3cc2c(c1=O)COC(=O)[C@]2(O)CC [10S, (20 S) 9-Ethoxymethyl-10-hydroxycamptothecin]
IC50 [1]: 48 nM | MTD [2]: 25 mg/kg | In Vivo Antitumor Activity ILS (increase in lifespan) [3]: 131%

CC[C@@]1(O)C(=O)OCc2c1cc1n(c2=O)Cc2cc3c(CNC4CCCCC4)c(O)ccc3nc2-1 [11S]
IC50 [1]: 56 nM | MTD [2]: 25 mg/kg | In Vivo Antitumor Activity ILS (increase in lifespan) [3]: > 200%

CC[C@@]1(O)C(=O)OCc2c1cc1n(c2=O)Cc2cc3c(CNCCN(C)C)c(O)ccc3nc2-1 [12S, (20 S) 9-N,N-Dimethylaminoethylaminomethyl-10-hydroxycamptothecin Dihydrochloride Salt]
IC50 [1]: 49 nM | MTD [2]: > 42 mg/kg | In Vivo Antitumor Activity ILS (increase in lifespan) [3]: 94%

CC[C@@]1(O)C(=O)OCc2c1cc1n(c2=O)Cc2cc3c(COCCN(C)C)c(O)ccc3nc2-1 [13S, (20 S) 9-N,N-Dimethylaminoethyloxymethyl-10-hydroxycamptothecin Hydrochloride Salt]
MTD [2]: 42 mg/kg | In Vivo Antitumor Activity ILS (increase in lifespan) [3]: 188%

CC[C@@]1(O)C(=O)OCc2c1cc1n(c2=O)Cc2cc3c(CSCCN(C)C)c(O)ccc3nc2-1 [14S, (20 S) 9-N,N-Dimethylaminoethylthiomethyl-10-hydroxycamptothecin Hydrochloride Salt]
IC50 [1]: 12 nM | MTD [2]: 42 mg/kg | In Vivo Antitumor Activity ILS (increase in lifespan) [3]: 112%

CC[C@@]1(O)C(=O)OCc2c1cc1n(c2=O)Cc2cc3cc(C=O)ccc3nc2-1 [19S, (20S) 10-Formylcamptothecin]
IC50 [1]: 62 nM

COc1cccc2c1C(=O)c1c(O)c3c(c(O)c1C2=O)C[C@@](O)(C(=O)CO)C[C@@H]3O[C@H]1C[C@H](N)[C@H](O)[C@H](C)O1 [Doxorubicin]
ILS ([4]; 1.2 mg/kg): 117% | NCK (net tumor cell kill) ([4]; 1.2 mg/kg): 3.0 log | ILS ([4]; 1.9 mg/kg): 167% | NCK (net tumor cell kill) ([4]; 1.9 mg/kg): 5.1 log | ILS ([4]; 3.2 mg/kg): 172% | NCK (net tumor cell kill) ([4]; 3.2 mg/kg): 5.3 log | ILS ([4]; 5.4 mg/kg): 156% | NCK (net tumor cell kill) ([4]; 5.4 mg/kg): 4.6 log | ILS ([4]; 9 mg/kg): 233% | NCK (net tumor cell kill) ([4]; 9 mg/kg): 6.5 log | ILS ([5]; 1.2 mg/kg): 19% | NCK (net tumor cell kill) ([5]; 1.2 mg/kg): 0 log | ILS ([5]; 1.9 mg/kg): 24% | NCK (net tumor cell kill) ([5]; 1.9 mg/kg): 0 log | ILS ([5]; 3.2 mg/kg): 24% | NCK (net tumor cell kill) ([5]; 3.2 mg/kg): 0 log | ILS ([5]; 5.4 mg/kg): 19% | NCK (net tumor cell kill) ([5]; 5.4 mg/kg): 0 log | ILS ([5]; 9 mg/kg): 14% | NCK (net tumor cell kill) ([5]; 9 mg/kg): 0 log | sensitivity / resistance of subline [5]: expected resistance | ILS ([6]; 1.2 mg/kg): 0% | NCK (net tumor cell kill) ([6]; 1.2 mg/kg): 0 log | ILS ([6]; 1.9 mg/kg): 0% | NCK (net tumor cell kill) ([6]; 1.9 mg/kg): 0 log | ILS ([6]; 3.2 mg/kg): 0% | NCK (net tumor cell kill) ([6]; 3.2 mg/kg): 0 log | ILS ([6]; 5.4 mg/kg): 4% | NCK (net tumor cell kill) ([6]; 5.4 mg/kg): 0 log | ILS ([6]; 9 mg/kg): 7% | NCK (net tumor cell kill) ([6]; 9 mg/kg): 0 log | sensitivity / resistance of subline ([6]; P388/mitoxantrone in mice): expected resistance

CO[C@@]12[C@H](COC(N)=O)C3=C(C(=O)C(C)=C(N)C3=O)N1C[C@@H]1N[C@@H]12 [Mitomycin C]
ILS ([4]; 1.0 mg/kg): 83% | NCK (net tumor cell kill) ([4]; 1.0 mg/kg): 1.7 log | ILS ([4]; 1.6 mg/kg): 106% | NCK (net tumor cell kill) ([4]; 1.6 mg/kg): 2.6 log | ILS ([4]; 2.7 mg/kg): 128% | NCK (net tumor cell kill) ([4]; 2.7 mg/kg): 3.5 log | ILS ([4]; 4.5 mg/kg): 156% | NCK (net tumor cell kill) ([4]; 4.5 mg/kg): 4.6 log | ILS ([4]; 7.5 mg/kg): 178% | NCK (net tumor cell kill) ([4]; 7.5 mg/kg): 5.5 log | ILS ([5]; 1.0 mg/kg): 29% | NCK (net tumor cell kill) ([5]; 1.0 mg/kg): 0 log | ILS ([5]; 1.6 mg/kg): 48% | NCK (net tumor cell kill) ([5]; 1.6 mg/kg): 0.3 log | ILS ([5]; 2.7 mg/kg): 52% | NCK (net tumor cell kill) ([5]; 2.7 mg/kg): 0.5 log | ILS ([5]; 4.5 mg/kg): 62% | NCK (net tumor cell kill) ([5]; 4.5 mg/kg): 1.0 log | ILS ([5]; 7.5 mg/kg): 52% | NCK (net tumor cell kill) ([5]; 7.5 mg/kg): 0.5 log | sensitivity / resistance of subline [5]: resistant | ILS ([6]; 1.0 mg/kg): 14% | NCK (net tumor cell kill) ([6]; 1.0 mg/kg): 0 log | ILS ([6]; 1.6 mg/kg): 29% | NCK (net tumor cell kill) ([6]; 1.6 mg/kg): 0 log | ILS ([6]; 2.7 mg/kg): 54% | NCK (net tumor cell kill) ([6]; 2.7 mg/kg): 1.8 log | ILS ([6]; 4.5 mg/kg): 136% | NCK (net tumor cell kill) ([6]; 4.5 mg/kg): 6.5 log | ILS ([6]; 7.5 mg/kg): 104% | NCK (net tumor cell kill) ([6]; 7.5 mg/kg): 5.5 log
